Results on six compounds are retold here after publication PMC6027674, “Acetylcholinesterase Inhibition and Antioxidant Activity of N-trans-Caffeoyldopamine and N-trans-Feruloyldopamine” (Scientia Pharmaceutica, 2018).

Assay [1] in a line: DPPH free radical scavenging assay. The conditions noted are these: 30 min, room temperature, dark, 517 nm; mean ± SD, n = 3; read-out: DPPH^• Scavenge IC50. The text has this: The 2,2-diphenyl-1-pycrylhydrazyl free radical (DPPH^•) scavenging method is widely used to evaluate the free radical scavenging ability of natural antioxidants. 2,2-Diphenyl-1-pycrylhydrazyl is a stable nitrogen centered free radical, which has a violet color that changes to yellow after reduction by the process of either hydrogen atom or single electron transfer mechanism. Compounds that are able to execute this reaction can be considered antioxidants and therefore radical scavengers. In the radical form, the DPPH molecule has an absorbance of 517 nm, which disappears after the acceptance of an electron or hydrogen radical from an antioxidant compound, to become a stable diamagnetic molecule. The DPPH^• scavenging activities of the tested compounds were estimated using the method of [35] with slight modification. To 1 mL methanolic solution of DPPH^• (0.08 mM), 0.1 mL of the tested compounds were added. The resulting mixture was shaken thoroughly and allowed to stand at room temperature in the dark for 30 min, after which the absorbance of the solution was measured at 517 nm. L(+)-Ascorbic acid was used as the positive control. The negative control contained DPPH^• and methanol. The ability to scavenge DPPH radical was calculated using the equation:(2) % DPPH radical scavenge = (1 − At/A0) × 100 where A0 is the absorbance of the control and At is the absorbance of the tested compound. The DPPH^• absorbance decreases with an increase in the DPPH radical scavenging activity.
(§1) All data on AChE inhibition/antioxidant activity are the average of triplicate analyses (n = 3) and the data were recorded as mean ± standard deviation. Regression analysis was performed to calculate the dose-response relation and IC50 values were obtained from the equations y = a ± bx.

Assay [2] in a line: ABTS radical cation scavenging assay. The conditions noted are these: 7 min, room temperature, 734 nm; mean ± SD, n = 3; read-out: ABTS^•+ Scavenge IC50. Here is the method:
The 2,2′-azinobis(3-ethylbenzothiazoline-6-sulphonic acid) radical cation (ABTS^•+), which absorbs at 734 nm, is formed by oxidation of the commercially available neutral species. This oxidation can be done by potassium persulphate, manganese (IV) oxide, or electrochemical methods. In the presence of a hydrogen-donating antioxidant, the […] quenches the hydrogen atom, which is followed by decolorization. In this study, the ABTS^•+ was produced by mixing 7 mM ABTS stock solution with 2.45 mM potassium persulfate and allowing the mixture to stand in a dark at room temperature for 16 h before use. Different concentrations of the tested compounds (0.1 mL) were added to 1 mL ABTS^•+ solution. The reaction mixtures were mixed thoroughly, incubated at room temperature for 7 min, and the absorbance was recorded at 734 nm. The ability to scavenge the ABTS radical cation was calculated using the following equation:(3) % ABTS radical cation scavenge = (1 − At/A0) × 100 where A0 is the absorbance of the control and At is the absorbance of the tested compound. The ABTS^•+ solution without any sample was used as a control, prepared by using the same procedure. From the percentage of the scavenging activity at different tested compounds concentrations, IC50 values were calculated and compared with those of standard L(+)-ascorbic acid solution.
as §1

Assay [3] is described as follows: Ferric-reducing antioxidant power (FRAP) assay. The conditions noted are these: pH 3.6, 6 min, 593 nm; mean ± SD, n = 3. The method, then: The FRAP assay is a typical electron transfer-based method that measures the reduction of (Fe^3+)-ligand complex to the intensely blue-colored ferrous (Fe^2+)-ligand complex by antioxidants. The FRAP assay is carried out under acidic pH conditions in order to maintain iron solubility and more importantly, drive electron transfer. This will increase the redox potential, causing a shift in the dominant reaction mechanism. The FRAP assay was done according to the method described by Benzie and Strain [40] with slightly modifications. The stock solutions included 300 mM acetate buffer (pH 3.6), 10 mM 2,4,6-tris(2-pyridyl)-s-triazine (TPTZ) solution in ethanol, and 20 mM FeCl3 solution in 20 mM HCl. […] An aliquot of 0.1 mL of the tested compound was allowed to react with 3.0 mL of the FRAP working solution and 0.3 mL of water. […] The results are expressed as L(+)-ascorbic acid equivalent (AAE).
(§2) Regression analysis was performed to calculate the dose-response relation and IC50 values were obtained from the equations y = a ± bx.

Assay [4] has as its target acetylcholinesterase (AChE) from Electrophorus electricus (Electrophorus electricus, UniProt O42275). As to the kind of experiment: biochemical. The conditions noted are these: AChE from E. electricus; 15 min incubation at 37 °C, pH 8; mean ± SD, n = 3; read-out: AChE Inhibition IC50.
The nature of assay [5]: Fe(II)-chelating assay (inhibition of Fe^2+–ferrozine complex formation). The conditions noted are these: 10 min, room temperature, 562 nm.
Source text: Among the transition metals, Fe^2+ ions are well-known for their significant role as a prooxidants in the lipid oxidation process and the formation of hydroxyl radicals in Fenton-type reactions. However, effective chelating agents can reduce the damage resulting from these reactions. The most important spectrophotometric method for studying chelation activity is the inhibition of the Fe^2+–ferrozine complex formation, during which ferrozine reacts quantitatively with Fe^2+ ions in the […] of a chelating agent and complex formation is disrupted. Measurement of color reduction therefore allows estimation of the metal chelating activity of the coexisting chelator. The chelating abilities on Fe^2+ by the tested compounds were estimated by the method as described by Dinis. Briefly, 0.4 mL of the tested compound was added to 0.05 mL of FeCl2 (2 mM) solution. The reaction was initiated by the addition of ferrozine (0.2 mL, 5 mM). The total volume of the systems was adjusted to 4 mL with ethanol. Then, the mixture was shaken vigorously and left at room temperature for 10 min. […] The percentage of chelating effect was calculated by using the equation below:(4) % Chelating effect = (1 − At/A0) × 100 where A0 is the absorbance of the control and At is the absorbance of the tested compound.
as §2

The mark [6] stands for this setting: read-out: Chelation ability IC50 (Fe^2+ ions).

Where “and” joins values, the source holds several entries; their conditions need not be identical. Identical values can stand only once.

Chain of acetylcholinesterase (AChE) from Electrophorus electricus (O42275 24-633): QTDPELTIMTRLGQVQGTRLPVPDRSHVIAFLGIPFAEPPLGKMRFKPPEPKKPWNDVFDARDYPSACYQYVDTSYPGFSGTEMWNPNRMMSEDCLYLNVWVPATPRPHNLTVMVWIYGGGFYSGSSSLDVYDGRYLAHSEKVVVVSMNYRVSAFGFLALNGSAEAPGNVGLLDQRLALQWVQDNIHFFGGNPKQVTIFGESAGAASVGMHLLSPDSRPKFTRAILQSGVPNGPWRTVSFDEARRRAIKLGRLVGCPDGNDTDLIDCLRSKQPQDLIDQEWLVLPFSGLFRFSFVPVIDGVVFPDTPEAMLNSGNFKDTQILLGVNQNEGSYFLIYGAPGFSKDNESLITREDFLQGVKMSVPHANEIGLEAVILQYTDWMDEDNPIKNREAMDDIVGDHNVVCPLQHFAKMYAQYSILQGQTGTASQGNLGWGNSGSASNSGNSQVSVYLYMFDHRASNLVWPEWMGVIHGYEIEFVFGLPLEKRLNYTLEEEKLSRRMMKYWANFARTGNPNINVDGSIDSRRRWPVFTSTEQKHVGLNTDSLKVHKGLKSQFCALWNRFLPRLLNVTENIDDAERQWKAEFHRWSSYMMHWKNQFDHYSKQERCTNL

`O=C1O[C@H]([C@@H](O)CO)C(O)=C1O` [L(+)-Ascorbic acid]: the figures for the half-maximal inhibitory concentration (IC50) in assay [1] and in assay [2] were 1.14 ± 0.03 µM and 110 nM, respectively.
Consider `O=C(/C=C/c1ccc(O)c(O)c1)NCCc1ccc(O)c(O)c1` [N-trans-Caffeoyldopamine], for which, in assay [3], the “FRAP AAE (L(+)-ascorbic acid equivalent)” value is 822.45 μmol/mmol and 822.45 ± 13.53 μmol/mmol. Besides, the concentration for half-maximal inhibition (IC50) in assay [1] turned out to be 5.95 ± 0.12 µM; in assay [2], 240 nM; in assay [4], 19.1 ± 0.83 µM; in assay [5] (read-out: Chelation of ferrous ions IC50), 3.48 mM.
For `COc1cc(/C=C/C(=O)NCCc2ccc(O)c(O)c2)ccc1O` [N-trans-Feruloyldopamine], the “FRAP AAE (L(+)-ascorbic acid equivalent)” value in assay [3] came out at 661.53 ± 13.51 μmol/mmol. Further, the IC50 in assay [1] turned out to be 12.29 ± 0.04 µM; in assay [2] it was 740 nM; in assay [4], 8.52 ± 0.27 µM; in assay [5] (setting [6]), 3.17 mM.
For `O=C([O-])CN(CCN(CC(=O)[O-])CC(=O)O)CC(=O)O.[Na+].[Na+]` [Na2EDTA, disodium ethylenediaminetetraacetate], in assay [5] (setting [6]), the IC50 amounted to 0.01 mM.
As to `O=C(O)/C=C/c1ccc(O)c(O)c1` [trans-Caffeic acid], the “FRAP AAE (L(+)-ascorbic acid equivalent)” value in assay [3] is recorded as 526.05 ± 12.87 μmol/mmol. Also, the IC50 came out at 18.9 ± 0.22 µM in assay [1], 1190 ± 20 nM in assay [2] and 12.9 mM in assay [5] (setting [6]).
Turning to `COc1cc(/C=C/C(=O)O)ccc1O` [trans-Ferulic acid], the IC50 was found to be 19.93 ± 0.18 µM in assay [1], 1620 ± 10 nM in assay [2], 20.6 ± 0.65 µM in assay [4] and 5.06 mM in assay [5] (setting [6]).
